Laboratory results from patent US4491675A, “Hydroformylation process using triarylphosphine and bisphosphine monooxide ligands” (Union Carbide Corporation, priority 1981, dated 1985).

Tests used:
[1] = Continuous propylene hydroformylation, long term catalyst stability (Examples 1 to 13, Table I); conditions: for thermal catalyst stability: 130° C., in words, relative comparison of ligand systems of Table I; for Aldehyde Product Reaction Rate, day 4, corrected reaction rate (in parenthesis) / Aldehyde Product Reaction Rate, day 4: day 4 at 130° C.; for Aldehyde Product Reaction Rate, day 4, corrected reaction rate (in parenthesis): corrected with mathematical rate model for standard rhodium-triphenylphosphine catalyst; for % Activity Decline: decline in catalyst activity from Day 1 through Day 4 at 130° C.; for Aldehyde Product Reaction Rate, day 1 / Aldehyde Product Reaction Rate, day 4: observed, total gas about 165 psig, Rh 100 or 200 ppm; for Aldehyde Product Reaction Rate, day 1: day 1 at 130° C.
Protocol: A series of long term catalyst stability experiments were conducted in a glass reactor operating in a continuous propylene hydroformylation mode. The reactor consisted of a three ounce pressure bottle submersed in an oil bath with a glass front for viewing. In each experiment about 20 ml. of a freshly prepared rhodium catalytic precursor solution was charged to the reactor with a syringe after purging the system with nitrogen. Each precursor solution contained from 100 to 200 ppm rhodium calculated as free metal (as noted in Table I below) introduced as rhodium dicarbonyl acetylacetonate, a phosphorus ligand or mixture of phosphorus ligands and a solvent.
After closing the reactor, the system was again purged with nitrogen and the oil bath was heated to furnish the desired hydroformylation reaction temperature. […] The flows of the feed gases (carbon monoxide, hydrogen and propylene) were controlled individually with mass flow meters and the feed gases dispersed into the precursor solution via fritted glass spargers. The unreacted portion of the feed gases stripped out the product aldehydes. […] The product aldehydes for each experiment were analyzed over the first day of continuous operation at 130° C. and over the fourth day of continuous operation at 130° C. and the average reaction rates for each experiment in terms of gram moles per liter per hour of total product aldehydes for the first and fourth days of continuous operation at the average measured partial pressures of hydrogen, carbon monoxide and propylene for said days are given in Table I below.

[2] = Continuous propylene hydroformylation with stepwise CO partial pressure increase, catalyst stability (Examples 14 to 18, Table II); conditions: for Aldehyde Product Reaction Rate, day 12, corrected reaction rate (in parenthesis): day 12 at 130° C., corrected with mathematical rate model for standard rhodium-triphenylphosphine catalyst; for % Activity Decline: decline in catalyst activity from Day 6 through Day 12 at 130° C.; for Aldehyde Product Reaction Rate, day 6: observed, day 6 at 130° C., total gas about 165 psig, Rh 200 or 300 ppm
Text: During days 9 to 13 the carbon monoxide partial pressure was increased stepwise from about 10 to 25 psia and returned to about 10 psia for day 14.

Molecule | thermal catalyst stability [1] | Aldehyde Product Reaction Rate, day 4, corrected reaction rate (in parenthesis) [1] | % Activity Decline [1] [%] | Aldehyde Product Reaction Rate, day 1 [1] [g·mol/L/h] | Aldehyde Product Reaction Rate, day 4 [1] [g·mol/L/h] | Aldehyde Product Reaction Rate, day 12, corrected reaction rate (in parenthesis) [2] | % Activity Decline [2] [%] | Aldehyde Product Reaction Rate, day 6 [2] [gmoles/L hr]
c1ccc(P(c2ccccc2)c2ccccc2)cc1 [Example 1, (C6 H5)3 P] | inferior thermal stability | 1.00 g·mol/L/h | 42 | 1.74 | 1.12 | – | – | –
O=P(CCP(c1ccccc1)c1ccccc1)(c1ccccc1)c1ccccc1 [Example 9, (C6 H5)2 P(CH2)2 P(O)(C6 H5)2] | inferior thermal stability | 0.63 g·mol/L/h | 40 | 1.06 | 0.87 | – | – | –
c1ccc(P(c2ccccc2)c2ccccc2)cc1 [Example 14, (C6 H5)3 P] | – | – | – | – | – | .76 gmoles/L hr | 32 | 1.12
(CH3 C6 H4)3 P [Example 3] | – | 1.02 g·mol/L/h | 25 | 1.36 | 1.49 | – | – | –
(CH3 O-C6 H4)3 P [Example 16] | – | – | – | – | – | 1.14 gmoles/L hr | 14 | 1.33
(CH3 OC6 H4)3 P [Example 5] | – | 1.36 g·mol/L/h | 13 | 1.57 | 1.68 | – | – | –
(ClC6 H4)3 P [Example 8] | – | .32 g·mol/L/h | 46 | 0.59 | 0.49 | – | – | –
CH3 -C6 H4)3 P [Example 15] | – | – | – | – | – | 1.24 gmoles/L hr | 17 | 1.50
